The record followed here is US12419874B2, “GLP-1R agonist compound and use thereof” (Chongqing Pharmaceutical Research Institute Co., Ltd., priority 2024, dated 2025).

SMILES strings stand for the structures. A value given as a limit tells only on which side of the number the result lay.

GLP-1R, sequence (P43220 24-463): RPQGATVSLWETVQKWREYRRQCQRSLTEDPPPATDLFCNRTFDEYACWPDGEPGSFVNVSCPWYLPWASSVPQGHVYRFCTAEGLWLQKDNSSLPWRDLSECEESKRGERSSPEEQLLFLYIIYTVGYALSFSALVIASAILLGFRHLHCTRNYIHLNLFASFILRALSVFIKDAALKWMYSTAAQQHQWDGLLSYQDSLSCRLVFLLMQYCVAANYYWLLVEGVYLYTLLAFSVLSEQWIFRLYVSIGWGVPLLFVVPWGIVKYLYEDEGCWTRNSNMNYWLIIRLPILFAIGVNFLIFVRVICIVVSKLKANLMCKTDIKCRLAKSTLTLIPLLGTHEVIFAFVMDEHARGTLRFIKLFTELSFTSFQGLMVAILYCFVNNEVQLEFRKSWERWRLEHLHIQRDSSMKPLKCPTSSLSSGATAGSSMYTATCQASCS

The test concerns the target GLP-1R (Homo sapiens, UniProt P43220). Put plainly: GLP-1R agonistic activity by One-Lite luciferase assay in HEK293-GLP-1R-luc cells (Example 59). The format is cell-based. As to conditions: 6 h incubation, read-out: cAMP EC50. How it is done:
The agonistic activities of the compounds of the present disclosure on GLP-1R were evaluated by detecting the generation of cAMP.
• (1) Cell line: HEK293-GLP-1R-luc Stable Cell Line (Cobioer, CBP71117); • (2) Culture medium: DMEM+10% FBS (Gibco); • (3) Kit: One-Lite™ kit Luciferase Assay System (Vazyme). 2. Experimental Procedures • (1) HEK293-GLP1R cells were inoculated in a 96-well plate at a density of 30000 cells per well; • (2) 10× working solution of each compound was formulated; • (3) 10 μL of 10× working solution of each compound was added to corresponding well and incubated at 37° C. for 6 h; • (4) 100 μL of One-Lite Luciferase Assay Substrate formulated using One-Lite Luciferase Assay Buffer was added to each well; • (5) The plate was incubated at room temperature for 3 min; • (6) The plate was read by a multimode microplate reader to detect chemiluminescence. 3. Data Analysis • (1) % Activity was calculated by the following formula: % Activity=100−(Signalcmpd−SignalAve-PC)/(SignalAve-VC−SignalAve-PC)×100 • (2) The dose-response curve was plotted to calculate EC50: Y=Bottom+(Top−Bottom)/(1+10^(Log EC50−X)*HillSlope)) • X: log of agonist concentration; Y: Activity. 4. Experimental Results
Regarding `Cc1cc(-n2nc3c(c2-n2ccn(-c4ccc5c(cnn5C)c4F)c2=O)[C@H](C)N(C(=O)c2cc4cc([C@H]5CCOC(C)(C)C5)ccc4n2[C@@]2(c4noc(=O)[nH]4)C[C@@H]2C)CC32COC2)cc(C)c1F` [Compound 21], the half-maximal effective concentration (EC50) – broadly, the concentration giving half of the maximal effect – was not above 20 nM.

Consider `Cc1cc(-n2nc3c(c2-n2ccn(-c4ccc5c(cnn5C)c4F)c2=O)[C@H](C)N(C(=O)c2cc4cc([C@H]5CCOC(C)(C)C5)ccc4n2[C@@]2(c4noc(=O)[nH]4)C[C@@H]2C)CC32CCC(=O)CC2)cc(C)c1F` [Compound 198], for which the EC50 was not above 20 nM.

As for `Cc1cc(-n2nc3c(c2-n2ccn(-c4ccc5c(cnn5C)c4F)c2=O)[C@H](C)N(C(=O)c2cc4cc([C@H]5CCOC(C)(C)C5)ccc4n2[C@@]2(c4noc(=O)[nH]4)C[C@@H]2C)CC32CC(C)(O)C2)cc(C)c1F` (stereo partly drawn) [Compound 179], the EC50 is not above 20 nM.

Regarding `Cc1cc(-n2nc3c(c2-n2ccn(-c4ccc5c(cnn5C)c4F)c2=O)[C@H](C)N(C(=O)c2cc4cc([C@H]5CCOC(C)(C)C5)ccc4n2[C@@]2(c4noc(=O)[nH]4)C[C@@H]2C)CC32CC(OC3CC3)C2)cc(C)c1F` (stereo partly drawn) [Compound 193], the EC50 was not above 20 nM.

For `Cc1cc(-n2nc3c(c2-n2ccn(-c4ccc5c(cnn5C)c4F)c2=O)[C@H](C)N(C(=O)c2cc4cc([C@H]5CCOC(C)(C)C5)ccc4n2[C@@]2(c4noc(=O)[nH]4)C[C@@H]2C)CC32CC(C)C2)cc(C)c1F` (stereo partly drawn) [Compound 219], the EC50 is not above 20 nM.

Turning to `C[C@H]1c2c(nn(-c3ccc(F)c(C4CC4)c3)c2-n2ccn(-c3ccc4c(cnn4C)c3F)c2=O)C2(CC2)CN1C(=O)c1cc2cc([C@H]3CCOC(C)(C)C3)ccc2n1C1(c2noc(=O)[nH]2)CC1` [Compound 170], the EC50 is not above 20 nM.

As to `Cc1cc(-n2nc3c(c2-n2ccn(-c4ccc5c(cnn5C)c4F)c2=O)[C@H](C)N(C(=O)c2cc4cc([C@H]5CCOC(C)(C)C5)ccc4n2[C@@]2(c4noc(=O)[nH]4)C[C@@H]2C)CC32CC2(F)F)cc(C)c1F` (stereo partly drawn) [Compound 225], the EC50 was not above 20 nM.

Regarding `Cc1cc(-n2nc3c(c2-n2ccn(-c4ccc5c(cnn5C)c4F)c2=O)[C@H](C)N(C(=O)c2cc4cc([C@H]5CCOC(C)(C)C5)ccc4n2[C@@]2(c4noc(=O)[nH]4)C[C@@H]2C)CC32CCC(F)(F)C2)cc(C)c1F` (stereo partly drawn) [Compound 212], the concentration for a half-maximal effect (EC50) was not above 20 nM.

Take `Cc1cc(-n2nc3c(c2-n2ccn(-c4ccc5c(cnn5C)c4F)c2=O)[C@H](C)N(C(=O)c2cc4cc([C@H]5CCOC(C)(C)C5)ccc4n2[C@@]2(c4noc(=O)[nH]4)C[C@@H]2C)CC32CS(=O)(=O)C2)cc(C)c1F` [Compound 191]: the half-maximal effective concentration (EC50) was not above 20 nM.

Regarding `Cc1cc(-n2nc3c(c2-n2ccn(-c4ccc5c(cnn5C)c4F)c2=O)[C@H](C)N(C(=O)c2cc4cc([C@H]5CCOC(C)(C)C5)ccc4n2[C@@]2(c4noc(=O)[nH]4)C[C@@H]2C)CC32CNC2)cc(C)c1F` [Compound 15], the EC50 is not above 20 nM.

In the case of `Cc1cc(-n2nc3c(c2-n2ccn(-c4ccc5c(cnn5C)c4F)c2=O)[C@H](C)N(C(=O)c2cc4cc([C@H]5CCOC(C)(C)C5)ccc4n2[C@@]2(c4noc(=O)[nH]4)C[C@@H]2C)CC32CCC(F)CC2)cc(C)c1F` (stereo partly drawn) [Compound 201], the EC50 was in the range of 20 to 100 nM.

Regarding `Cc1cc(-n2nc3c(c2-n2ccn(-c4ccc5c(ccn5C)c4F)c2=O)[C@H](C)N(C(=O)c2cc4cc([C@H]5CCOC(C)(C)C5)ccc4n2[C@@]2(c4noc(=O)[nH]4)C[C@@H]2C)CC32CCCNC2)cc(C)c1F` (single isomer, unassigned) [Compound 51-A], the EC50 is not above 20 nM.

As for `Cc1cc(-n2nc3c(c2-n2ccn(-c4ccc5c(cnn5C)c4F)c2=O)[C@H](C)N(C(=O)c2cc4cc([C@H]5CCOC(C)(C)C5)ccc4n2[C@@]2(c4noc(=O)[nH]4)C[C@@H]2C)CC32CCSCC2)cc(C)c1F` [Compound 188], the EC50 is not above 20 nM.

For the molecule `Cc1cc(-n2nc3c(c2-n2ccn(-c4ccc5c(cnn5C5CC5)c4F)c2=O)[C@H](C)N(C(=O)c2cc4cc([C@H]5CCOC(C)(C)C5)ccc4n2[C@@]2(c4noc(=O)[nH]4)C[C@@H]2C)CC32CC2)cc(C)c1F` [Compound 221], the EC50 was not above 20 nM.

Take `Cc1cc(-n2nc3c(c2-n2ccn(-c4ccc5c(cnn5C)c4F)c2=O)[C@H](C)N(C(=O)c2cc4cc([C@H]5CCOC(C)(C)C5)ccc4n2[C@@]2(c4noc(=O)[nH]4)C[C@@H]2C)CC32CCCN2)cc(C)c1F` (stereo partly drawn) [Compound 31]: the EC50 was not above 20 nM.

In the case of `Cc1cc(-n2nc3c(c2-n2ccn(-c4ccc5c(cnn5C)c4F)c2=O)[C@H](C)N(C(=O)c2cc4cc([C@H]5CCOC(C)(C)C5)ccc4n2[C@@]2(c4noc(=O)[nH]4)C[C@@H]2C)CC32CCC(O)CC2)cc(C)c1F` (stereo partly drawn) [Compound 199], the EC50 was not above 20 nM.

On to `Cc1cc(-n2nc3c(c2-n2ccn(-c4ccc5c(cnn5C)c4F)c2=O)[C@H](C)N(C(=O)c2cc4cc([C@H]5CCOC(C)(C)C5)ccc4n2[C@@]2(c4noc(=O)[nH]4)C[C@@H]2C)CC32CCN(C=O)C2)cc(C)c1F` (stereo partly drawn) [Compound 83], for which the EC50 was not above 20 nM.

With `Cc1cc(-n2nc3c(c2-n2ccn(-c4ccc5c(cnn5C)c4F)c2=O)[C@H](C)N(C(=O)c2cc4cc([C@H]5CCOC(C)(C)C5)ccc4n2[C@@]2(c4noc(=O)[nH]4)C[C@@H]2C)CC32CCN(C(=O)[C@H](C)N)CC2)cc(C)c1F` [Compound 160], the EC50 is not above 20 nM.

`Cc1cc(-n2nc3c(c2-n2ccn(-c4ccc5c(cnn5C)c4F)c2=O)[C@H](C)N(C(=O)c2cc4cc(C5CCOC(C)(C)C5)ccn4c2C2(c4noc(=O)[nH]4)CC2)CC32CC2)cc(C)c1F` (single isomer, unassigned) [Compound 185-B]: the EC50 was in the range of 20 to 100 nM.

`C[C@H]1C[C@]1(c1noc(=O)[nH]1)n1c(C(=O)N2C3CCCC2c2c(nn(-c4ccc(F)c(C5CC5)c4)c2-n2ccn(-c4ccc5c(cnn5C)c4F)c2=O)C3)cc2cc([C@H]3CCOC(C)(C)C3)ccc21` (stereo partly drawn) [Compound 151]: the half-maximal effective concentration (EC50) was not above 20 nM.

For `Cc1cc(-n2nc3c(c2-n2ccn(-c4ccc5c(cnn5C)c4F)c2=O)[C@H](C)N(C(=O)c2cc4cc([C@H]5CCOC(C)(C)C5)ccc4n2[C@@]2(c4noc(=O)[nH]4)C[C@@H]2C)CC32CC(O)C2)cc(C)c1F` (stereo partly drawn) [Compound 181], the EC50 was not above 20 nM.

In the case of `CNC(=O)N1CCC2(CC1)CN(C(=O)c1cc3cc([C@H]4CCOC(C)(C)C4)ccc3n1[C@@]1(c3noc(=O)[nH]3)C[C@@H]1C)[C@@H](C)c1c2nn(-c2cc(C)c(F)c(C)c2)c1-n1ccn(-c2ccc3c(cnn3C)c2F)c1=O` [Compound 163], the EC50 is not above 20 nM.

As to `Cc1cc(-n2nc3c(c2-n2ccn(-c4ccc5c(cnn5C)c4F)c2=O)[C@H](C)N(C(=O)c2cc4cc([C@H]5CCOC(C)(C)C5)ccc4n2[C@@]2(c4noc(=O)[nH]4)C[C@@H]2C)CC32CN(S(C)(=O)=O)C2)cc(C)c1F` [Compound 168], the EC50 was not above 20 nM.

`Cc1cc(-n2nc3c(c2-n2ccn(-c4ccc5c(cnn5C)c4F)c2=O)[C@H](C)N(C(=O)c2cc4cc([C@H]5CCOC(C)(C)C5)ccc4n2[C@@]2(c4noc(=O)[nH]4)C[C@@H]2C)CC32CCNC2)cc(C)c1F` (stereo partly drawn) [Compound 195]: the EC50 was not above 20 nM.
